Assay results from ChEMBL document CHEMBL4425141, “Design, Synthesis, and Identification of 4″α-Azidoethyl-cyclic ADP-Carbocyclic-ribose as a Highly Potent Analogue of Cyclic ADP-Ribose, a Ca(2+)-Mobilizing Second Messenger” (J Med Chem, 2016).

Legend:
[1] = (§1) Induction of calcium mobilization in sea urchin egg by fluorometry; type: functional, Hemicentrotus pulcherrimus
[2] = test system: Hemicentrotus pulcherrimus; assay: as §1; type: functional

EC50 [1] | Structure (SMILES) | Activity [2]
54 nM | Nc1c2ncn3c2nc[n+]1[C@@H]1C[C@H](COP(=O)([O-])OP(=O)(O)OC[C@H]2O[C@@H]3[C@H](O)[C@@H]2O)[C@@H](O)[C@H]1O | 
213 nM | Nc1c2ncn3c2nc[n+]1[C@@H]1O[C@H](COP(=O)([O-])OP(=O)(O)OC[C@H]2O[C@@H]3[C@H](O)[C@@H]2O)[C@@H](O)[C@H]1O | Dose-dependent effect
24 nM | [N-]=[N+]=NCC[C@]12COP(=O)(O)OP(=O)([O-])OC[C@H]3O[C@H]([C@H](O)[C@@H]3O)n3cnc4c(N)[n+](cnc43)[C@H](C1)[C@H](O)[C@@H]2O | 
